Measured values from publication PMC6405930, “Conservation of the Amyloid Interactome Across Diverse Fibrillar Structures” (Scientific Reports, 2019).

Key:
glucagon fibrils [1] = biological target: T1, glucagon fibrils (Homo sapiens, UniProt P01275); test: Fibril incubation with CSF, quantitative MS/MS of bound proteins; assay type: binding; details: 4:1 w/w CSF protein:fibril
T1 construct: fibrils of the peptide hormone glucagon
Protocol: (§1) Plasma and CSF solutions were centrifuged (40,000 g, 20 min) to remove any aggregates. The protein concentration was determined using 280 nm absorbance assuming 1 Abs = 1 mg/mL. […] Control samples (without fibril material) were prepared similarly. All samples were incubated at room temperature for one hour under gentle agitation. Fibrils and fibril-bound proteins were pelleted by centrifugation at 17,000 g for 30 minutes. The supernatant (175 μL) was removed and the aggregate was re-suspended in 175 μL PBS and pelleted again before further preparation for gel analysis and spin-filter assisted digest for quantitative MS/MS.
(§2) The fibril-protein pellets were transferred to spin-filters (0.22 μm), washed twice in PBS (100 μL) and once in 1 M NaCl (100 μL). The fibrils and fibril-bound proteins were dissolved by one-hour incubation in 100 μL 6 M guanidinium chloride followed by elution from the spin-filter. The eluted proteins were loaded onto a 3 kDa MWCO filter unit for filter-assisted unfolding, reduction, alkylation, and trypsin digestion. In brief, samples were washed twice in 8 M urea, once in 8 M urea with 50 mM DTT, once in 8 M urea with 50 mM iodoaceteamide, and twice in 8 M Urea. The filter units were dried by centrifugation (14,000 g in 30 minutes) after every addition. Trypsin digestion was carried out with 0.25 μg sequencing grade trypsin from Sigma Aldrich in 50 mM ammonium bicarbonate overnight at 37 °C. The tryptic peptides were collected by centrifugation, acidified with TFA (0.1%) and micro-purified using POROS R2 column material (Applied Biosystems) packed in P200 pipette tips (Sarstedt).
(§3) LC-MS/MS analyses were performed on an EASY-nLC II system (Thermo Fisher Scientific) connected to a TripleTOF 5600+ mass spectrometer (Sciex) equipped with a NanoSpray III source (Sciex) and operated under Analyst TF 1.6.0 control.
(§4) The micro-purified tryptic peptides were dissolved in 0.1% formic acid, injected and trapped on an in-house packed trap column (2 cm × 100 μm I.D) with RP ReproSil-Pur C18-AQ 3 μm resin (Dr. Maisch GmbH). Peptides were eluted from the trap column and separated on a 15 cm analytical column (75 μm i.d.) packed in-house in a pulled emitter with RP ReproSil-Pur C18-AQ 3 μm resin (Dr. Maisch GmbH). Elution from the analytical column was performed with a linear gradient from 5% to 35% phase B (90% acetonitrile with 0.1% formic acid) over 20 min for protein identification and 50 min for quantitative analysis, respectively.
(§5) All samples were analysed three times, yielding nine MS/MS experiments for each fibril for both plasma and CSF. For the area-based extracted ion chromatogram (XIC) quantification, the acquisition method was set up as an information-dependent acquisition (IDA) experiment collecting up to 25 MS/MS spectra in each 1.6 sec cycle using an exclusion window of 6 sec.
(§6) XIC quantification was based on the average ion intensity of the three most abundant peptides for each protein. Only proteins quantified in at least four out of nine MS/MS experiments per fibril were included in the quantification. The total ion scores were visualized after grouping the proteins according to function (Figure S11).
(§7) For each MS/MS experiment, the ion intensities of the individual proteins were normalized to the total ion intensity of that MS/MS experiment to achieve a relative protein composition. The contribution of each protein was averaged over all nine MS/MS experiments (Tables 1 and 2).

C-36 fibrils [2] = biological target: T2, C-36 fibrils (Homo sapiens, UniProt P01009); test: Fibril incubation with plasma, quantitative MS/MS of bound proteins; assay type: binding; details: 50:1 w/w plasma protein:fibril
T2 construct: the 36 residue C-terminal fragment of α1-antitrypsin (C-36)
Protocol: as §1, §2, §3, §4, §5, §6, §7

FAS4-AD aggregates [3] = test system: T3, FAS4-AD aggregates; test: Fibril incubation with CSF, quantitative MS/MS of bound proteins; assay type: binding, human; parameters: key to Identification status of CSF protein bound: FAS4-AD: *: Identified, but not quantified; —: Not identified in any of the samples; details: symbol cells
T3 construct: aggregates of a mutated version of the FAS1-4 domain of TGFBIp
Protocol: as §1, §2, §3, §4, §5, §6, §7

αSN fibrils [4] = biological target: T4, αSN fibrils (Homo sapiens, UniProt P37840); test: Fibril incubation with plasma, quantitative MS/MS of bound proteins; assay type: binding; details: 50:1 w/w plasma protein:fibril
Protocol: as §1, §2, §3, §4, §5, §6, §7

glucagon fibrils [5] = biological target: T1, glucagon fibrils; test: as above; assay type: binding; details: 50:1 w/w plasma protein:fibril
Protocol: as §1, §2, §3, §4, §5, §6, §7

Ab1 fibrils [6] = test system: T5, Ab1 fibrils; test: as above; assay type: binding, human; details: 50:1 w/w plasma protein:fibril
T5 construct: Synthetic amyloid β peptide 1–40 was purchased from Caslo Aps (Lyngby, Denmark); purchased Caslo Aps (Lyngby, Denmark); host or cells: synthetic peptide
Protocol: (§8) Plasma and CSF solutions were centrifuged (40,000 g, 20 min) to remove any aggregates. The protein concentration was determined using 280 nm absorbance assuming 1 Abs = 1 mg/mL. […] Control samples (without fibril material) were prepared similarly. All samples were incubated at room temperature for one hour under gentle agitation. Fibrils and fibril-bound proteins were pelleted by centrifugation at 17,000 g for 30 minutes. The supernatant (175 μL) was removed and the aggregate was re-suspended in 175 μL PBS and pelleted again before further preparation for gel analysis and spin-filter assisted digest for quantitative MS/MS.
as §2, §3, §4, §5, §6, §7

FAS4-AD aggregates [7] = test system: T3, FAS4-AD aggregates; test: as above; assay type: binding, human; details: 50:1 w/w plasma protein:fibril
Protocol: as §1, §2, §3, §4, §5, §6, §7

Ab1 fibrils [8] = test system: T5, Ab1 fibrils; test: Fibril incubation with CSF, quantitative MS/MS of bound proteins; assay type: binding, human; details: 4:1 w/w CSF protein:fibril
Protocol: as §1, §2, §3, §4, §5, §6, §7

Ab2 fibrils [9] = test system: T6, Ab2 fibrils; test: Fibril incubation with plasma, quantitative MS/MS of bound proteins; assay type: binding, human; details: 50:1 w/w plasma protein:fibril
T6 construct: Two structurally distinct fibrils of the Aβ(1–40) peptide associated with AD
Protocol: as §1, §2, §3, §4, §5, §6, §7

[10] = test system: fibril systems (Ab1, Ab2, glucagon, αSN and C-36); test: Fibril incubation with plasma, quantitative MS/MS, span over the fibril systems; assay type: binding, human
Protocol: as §8
The fibril-protein pellets were transferred to spin-filters (0.22 μm), washed twice in PBS (100 μL) and once in 1 M NaCl (100 μL). The fibrils and fibril-bound proteins were dissolved by one-hour incubation in 100 μL 6 M guanidinium chloride followed by elution from the spin-filter. […]
as §4, with “Peptides were eluted from the trap column and separated on a 15 cm analytical column (75 μm i.d.) packed in-house in a pulled emitter with RP ReproSil-Pur C18-AQ 3 μm resin (Dr. Maisch GmbH).” left out
as §5, with “sec. […]” for “sec.”
XIC quantification was based on the average ion intensity of the three most abundant peptides for each protein. Only proteins quantified in at least four out of nine MS/MS experiments per fibril were included in the quantification. […]

Ab2 fibrils [11] = test system: T6, Ab2 fibrils; test: Fibril incubation with CSF, quantitative MS/MS of bound proteins; assay type: binding, human; parameters: key to Identification status of CSF protein bound: Ab2: *: Identified, but not quantified; —: Not identified in any of the samples
Protocol: as §1, §2, §3, §4, §5, §6, §7

αSN fibrils [12] = biological target: T4, αSN fibrils; test: as above; assay type: binding; parameters: key to Identification status of CSF protein bound: αSN: *: Identified, but not quantified; —: Not identified in any of the samples
Protocol: as §1, §2, §3, §4, §5, §6, §7

C-36 fibrils [13] = biological target: T2, C-36 fibrils; test: as above; assay type: binding; details: 4:1 w/w CSF protein:fibril
Protocol: as §1, §2, §3, §4, §5, §6, §7

Ab2 fibrils [14] = test system: T6, Ab2 fibrils; test: Fibril titration with ANS (fluorescence); assay type: binding, human; details: 2.5 μg aggregate material, ANS 20 to 167 μM
Protocol: (§9) Fibril material (2.5 μg) was set up in 50 μL phosphate buffer in a 96 well half-area NBS plate (NUNC/Terma). Stepwise ANS titration was conducted from 20 to 167 μM with 100 sec mixing (300 rpm) before each measurement using a FLUOstar Omega plate reader (excitation at […], emission at 485 nm).

FAS4 AD aggregates = test system: T7, FAS4 AD aggregates; test: Fibril titration with ANS (fluorescence); assay type: binding, human; details: 2.5 μg aggregate material, ANS 20 to 167 μM
T7 construct: a mutated version of the FAS1-4 domain of TGFBIp
Protocol: as §9

Ab1 fibrils [15] = test system: T5, Ab1 fibrils; test: Fibril titration with ANS (fluorescence); assay type: binding, human; details: 2.5 μg aggregate material, ANS 20 to 167 μM
Protocol: as §9

C-36 fibrils [16] = biological target: T2, C-36 fibrils; test: Fibril titration with ANS (fluorescence); assay type: binding; details: 2.5 μg aggregate material, ANS 20 to 167 μM
Protocol: as §9

αSN fibrils [17] = biological target: T4, αSN fibrils; test: Fibril titration with ANS (fluorescence); assay type: binding; details: 2.5 μg aggregate material, ANS 20 to 167 μM
Protocol: as §9

[18] = test system: chymotrypsinogen aggregates; test: Fibril titration with ANS (fluorescence); assay type: binding; details: 2.5 μg aggregate material, ANS 20 to 167 μM
Protocol: as §9

glucagon fibrils [19] = biological target: T1, glucagon fibrils; test: Fibril titration with ANS (fluorescence); assay type: binding; details: 2.5 μg aggregate material, ANS 20 to 167 μM
Protocol: as §9

T1 sequence (P01275 53-81 limits assumed): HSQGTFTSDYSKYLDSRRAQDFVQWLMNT
T2 sequence (P01009 383-418 limits assumed): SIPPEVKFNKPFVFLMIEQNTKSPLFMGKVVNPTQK

Row | Compound | Relative composition of CSF proteins bound: Glucagon (glucagon fibrils [1]) | Relative composition of plasma proteins bound: C-36 (C-36 fibrils [2]) | Identification status of CSF protein bound: FAS4-AD (FAS4-AD aggregates [3]) | Relative composition of plasma proteins bound: αSN (αSN fibrils [4]) | Relative composition of plasma proteins bound: Glucagon (glucagon fibrils [5]) | Relative composition of plasma proteins bound: Ab1 (Ab1 fibrils [6]) | Relative composition of plasma proteins bound: FAS4-AD (FAS4-AD aggregates [7]) | Relative composition of CSF proteins bound: Ab1 (Ab1 fibrils [8]) | Relative composition of plasma proteins bound: Ab2 (Ab2 fibrils [9]) | Relative composition of CSF proteins bound: C-36 (C-36 fibrils [13]) | further results
1 | Apolipoprotein A-I: plasma/CSF protein bound to fibrils | 2.6 ± 0.8 % of total protein | 13.5 ± 0.5 % of total protein | * | 14.7 ± 3.0 % of total protein | 11.7 ± 1.4 % of total protein | 8.8 ± 0.9 % of total protein | 15.7 ± 4.6 % of total protein | 3.9 ± 0.4 % of total protein | 14.9 ± 7.0 % of total protein | 5.0 ± 1.6 % of total protein | contribution to the fibril interactomes [10]: 8.8–14.9%; Relative composition of CSF proteins bound: Ab2 (Ab2 fibrils [11]; 4:1 w/w CSF protein:fibril): 2.9 ± 0.6 % of total protein; Relative composition of CSF proteins bound: αSN (αSN fibrils [12]; 4:1 w/w CSF protein:fibril): 2.7 ± 1.0 % of total protein
2 | Apolipoprotein A-II: plasma/CSF protein bound to fibrils | 0.6 ± 0.2 % of total protein | 1.9 ± 0.5 % of total protein | — | 0.9 ± 0.3 % of total protein | 6.2 ± 0.6 % of total protein | 1.1 ± 0.2 % of total protein | 1.8 ± 0.2 % of total protein | 1.0 ± 0.3 % of total protein | 1.2 ± 0.2 % of total protein | 0.9 ± 0.1 % of total protein | Identification status of CSF protein bound: Ab2 (Ab2 fibrils [11]; symbol cells): *; Identification status of CSF protein bound: αSN (αSN fibrils [12]; symbol cells): —
3 | O=S(=O)(O)c1cccc2cccc(Nc3ccccc3)c12 [ANS, 8-anilinonaphthalene sulfonate] |  |  |  |  |  |  |  |  |  |  | ANS fluorescence signal (Ab2 fibrils [14]): little or no signal at all; ANS fluorescence signal (FAS4 AD aggregates): intermediate signal intensities; ANS fluorescence signal (Ab1 fibrils [15]): little or no signal at all; ANS fluorescence signal (C-36 fibrils [16]): little or no signal at all; ANS fluorescence signal (αSN fibrils [17]): significant fluorescence enhancements; ANS fluorescence signal [18]: intermediate signal intensities; ANS fluorescence signal (glucagon fibrils [19]): little or no signal at all
